Converted amounts (≈) assume the structure as drawn. Read-outs that look alike come from different tables or passages of the source. Marks after values point to notes of the source that are not given here. A value given as a limit tells only on which side of the number the result lay.

The values that follow come from US7579336B2, “Pharmaceutical composition comprising temozolomide ester” (Tian Jin Tasly Group Co., Ltd., priority 2004, dated 2009).

In data set [1] the test system is A549 (human lung carcinoma cells). As to the kind of experiment: MTT reduction assay, killing tumor cells. It is filed as cell-based. Conditions: four days culture with drug. On the procedure: (§1) The experiment was carried out for methyl TMZ-8-carboxylate, butyl TMZ-8-carboxylate, n-hexyl TMZ-8-carboxylate, and TMZ acid which had been known as an active compound against carcinoma, and used fluorouracil injection (10 ml:0.25 g, purchased from Xudong Pharmaceutical Co. Ltd, the batch number was 000612) as the drug for the positive control. Cancer cell strains used in experiments included HCT-8(human colon carcinoma cells), A549 (human lung carcinoma cells), MCF-7(human breast carcinoma cells), Bel7402 (human liver carcinoma cells), BGC-823(human gastric carcinoma cells) and MV3 (human melanoma cells).
(§2) TMZ acid is white powder; Methyl TMZ-8-carboxylate, butyl TMZ-8-carboxylate and n-hexyl TMZ-8-carboxylate, white scaly crystals, manufactured by the method described in Example 2; Fluorouracil injection (10 ml: 0.25 g): as drug for the positive control, manufactured by Xudong Pharmaceutical Co. Ltd, the batch number 000612; RPMI: produced by GIBCO; Calf serum: manufactured by Sijiqing bio-engineer material Co. Ltd, Hangzhou; and MTT: produced by Bebco.
(§3) All cancer cell strains of HCT-8, A549, MCF-7, Bel-7402, BGC-823, MV3 and B16 was fostered and transferred of culture by Institute of Materia Medica, Chinese Academy of Medical Sciences and Peking Union Medical College.
(§4) Tetrazolium salt [3-(4,5-dimethylthiazol-2-yl)-2,5-diphenyl-tetrazolium bromide, MTT] reduction assay was used. All the well-grown carcinoma cells were collected, prepared intol 1×10^4/ml cell suspension with the RPMI 1640 culture solution containing 10% calf serum, and inoculated in 96-well culture plate, with 100 uL per well (containing 1000 cancer cells). After 24 hours of culture in 5% CO2 thermos incubator at temperature of 37° C. the drugs were added. Blank control group was established and the drug for the positive control was Fluorouracil. The tested drugs were divided into five groups at different concentrations, each concentration was tested for three times parallelly, and placed in 5% CO2 thermos incubator at temperature of 37° C. to culture for four days. The culture solution was discarded and 100 uL of MTT solution (0.4 mg/ml, prepared with RPMI 1640) was added per well to continue to culture for four hours at temperature of 37° C. The supernate was discarded and 150 uL of DMSO was added to dissolve Fomazan granules. After slight agitation, the OD value was measured with BIORAD 550 enzyme labeling instrument at the measuring wavelength of 540 nm and the reference wavelength of 450 nm.
(§5) Data of cell inhibiting rate was then plotted vs. the concentration of drugs to obtain the dose-reaction curve, by which 50% inhibitory concentration IC50 was calculated (see Table 1 and Table 2).

The test system of data set [2] is BGC-823(human gastric carcinoma cells). The data set can be described thus: MTT reduction assay, killing tumor cells. It is filed as cell-based. The conditions noted are these: BGC-823 cells, four days culture with drug. On the procedure: as §1, §2, §3, §4, §5
A general note: Tetrazolium dyes change colour on reduction, which living cells bring about.

In data set [3] the test system is Bel7402 (human liver carcinoma cells). As to the kind of experiment: MTT reduction assay, killing tumor cells. The conditions noted are these: Bel-7402 cells, four days culture with drug. It is filed as cell-based. As for the experimental part: as §1, §2, §3, §4, §5
For data set [4], the system named is HCT-8(human colon carcinoma cells). As to the kind of experiment: MTT reduction assay, killing tumor cells. It is filed as cell-based. Conditions: HCT-8 cells, four days culture with drug. As for the experimental part: as §1, §2, §3, §4, §5
Data set [5] concerns MCF-7(human breast carcinoma cells). The data set can be described thus: MTT reduction assay, killing tumor cells. It is filed as cell-based. Conditions: MCF-7 cells, four days culture with drug. On the procedure:
as §1, §2, §3, §4, §5

For data set [6], the system named is MV3 (human melanoma cells). The data set can be described thus: MTT reduction assay, killing tumor cells. It is filed as cell-based. Conditions: four days culture with drug. As for the experimental part:
as §1, §2, §3, §4, §5

The subject of data set [7] is HCT-8, A549, MCF-7, Bel7402, BGC-823 and MV3 cancer cell strains. As to the kind of experiment: MTT reduction assay, summary over the selected cell strains. Conditions: Homo sapiens; summary of Table 1 over all selected cell strains; read-out: IC50 ranges for the selected cell strains. It is filed as cell-based. As for the experimental part: as §1, §4, §5
Data set [8] deals with xenotransplanted human melanoma MV3. The data set can be described thus: Topical administration, growth of xenotransplanted human melanoma in MV3 nude mouse. It is filed as in vivo, nude mouse of BALB/c-nu. On the procedure:
Hexyl TMZ-8-carboxylate was selected as the representative to investigate the influence of TMZ-8-carboxylate derivatives on the growth of xenotransplanted human melanoma in MV3 nude mouse.
Hexyl TMZ-8-carboxylate was dissolved in DMSO to obtain 50 mg/ml solution. Human melanoma was xenotransplanted to nude mouse of BALB/c-nu to allow it to grow. Until the tumor expanded to the volume of 100˜300 mm^3, all animals were divided into two groups in accordance with the size of tumor, eight mice per group.
Of these two groups, one was the treatment group in therapeutical treatment by spreading the solution of hexyl TMZ-8-carboxylate; another was the control group where the tumor grows naturally.
In the treatment group, the drug was administered by spreading drug at the position of tumor and surrounding area (2 cm×2 cm) twice a day (once on Saturday and Sunday). Every time, when the solution was dried, administration was repeated for 1 to 2 times. The daily average dose of hexyl TMZ-8-carboxylate administered for a mouse totally was about 20 mg.
The volume of tumor in mouse was measured twice a week, so as to observe and record their growth dynamically. Until the tumor of the control group grew up to a certain volume, all the mice were killed the tumors were stripped off and weighed, growth inhibition rate was calculated. Tumor proliferation (T/C(%)) was calculated using relative volume of tumor in two groups.
Tumor volume (TV) was calculated by the equation as follows: Length×width^2÷2
The relative tumor volume is calculated by the equation as follows: Vt/Vo
Wherein the Vo is the TV measured at the time when the animals were raised in separate cages, and […] is the TV measured each time after.
The t-test was used to compare the statistical difference between two groups in many indexes such as tumor weight, TV and RTV. The relative tumor proliferation rate (T/C(%))was used as the index of bioactivity for anti tumor, which was calculated as follows: […]
The effect was evaluated by statistical analysis. The effect was regarded as invalid when T/C (%) is more than 60, and as effective when T/C (%) is equal to or less than 60 and p<0.05.

Data set [9] can be described thus: Stability of TMZ-8-carboxylate derivatives in alcohols (HPLC). It is filed as physicochemical. The conditions noted are these: room temperature, sampled up to 32 months. As for the experimental part:
n-hexyl TMZ-8-carboxylate was weighed accurately and prepared into 1% of solution by diluting respectively with methanol, ethanol, isopropanol and tert-butyl alcohol. Three sample solutions (20 ml) were taken out in each of above solutions and placed into 50 ml volumetric brown glass bottle, sealed and allowed to stand at room temperature. At time of 1, 4, 8, 12, 16, 20, 24, 28, 32 months after beginning, the solutions were sampled and determined the concentration of n-hexyl TMZ-8-carboxylate by HPLC, to calculate the average value of three parallel solutions and plotted.

A short description of data set [10]: Stability of TMZ-8-carboxylate in media of different pH (HPLC). It is filed as physicochemical. The conditions noted are these: 1% aqueous solution, sampled up to 32 months. On the procedure:
The sodium hydroxide and citric acid were accurately weighed and respectively diluted with water to form the solution with the pH value of 7.5, 7.0, 6.5, 6.0 and 5.5. n-Hexyl TMZ-8-carboxylate was accurately weighed, and dissolved into said aqueous solutions with different pH values to form a series of 1% solutions of n-hexyl TMZ-8-carboxylate. Three sample solutions (20 ml) were taken out in each of above solutions and placed into 50 ml volumetric brown glass bottle, sealed and allowed to stand at room temperature. At 1, 4, 8, 12, 16, 20, 24, 28, 32 months after beginning, the solutions were sampled and determined the concentration of n-hexyl TMZ-8-carboxylate by HPLC, to calculate the average of three parallel solutions and plotted.

The conditions of data set [11]: studies published in WO0057867; cited from earlier work.
Setting [12] is: Homo sapiens, MV-3, 96 h, read-out: IC50.
[13] abbreviates: Homo sapiens, 96 h, read-out: IC50.
The mark [14] stands for this setting: Homo sapiens, MCF7, 96 h, read-out: IC50.
[15] abbreviates: 20 mg/day/mouse spread on tumor, beginning of test, X ± SD.

One may read the IC50 as the point on the concentration scale where inhibition reaches its midpoint. Consider `Cn1nnc2c(C(=O)O)ncn2c1=O` [TMZ acid, reference compound], for which the IC50 in data set [1] was over 19.5 µg/mL; in data set [2] it was over 19.5 µg/mL; in data set [3], 16.957 µg/mL (≈ 86.9 µM); in data set [4], 18.525 µg/mL (≈ 94.9 µM); in [5], 14.911 µg/mL (≈ 76.4 µM); in data set [6], 14.625 µg/mL (≈ 74.9 µM).

For `O=c1[nH]cc(F)c(=O)[nH]1` [Fluorouracil, reference compound], the IC50 in data set [6] (setting [12]) came out at 0.427 µg/mL (≈ 3.28 µM).

Regarding `CCCCCCOC(=O)c1ncn2c(=O)n(C)nnc12` [n-hexyl TMZ-8-carboxylate, n-hexyl 3,4-dihydro-3-methyl-4-oxoimidazo[5,1-d]-1,2,3,5-tetrazine-8-carboxylate], the IC50 in [2] (setting [13]) was over 19.5 µg/mL; in data set [5] (setting [14]) it was 20 µg/mL (≈ 71.6 µM); in data set [6] (setting [12]) it was 8.84 µg/mL (≈ 31.6 µM); in [7], 10 to 30 µg/mL (≈ 35.8 to 107 µM). Also, in [8] (20 mg daily externally administered per mouse, human melanoma MV3), the “Effect on the growth of carcinomas in the mice” value is given as “significant inhibiting effects”. The “Body weight(g) Beginning test” value in data set [8] (setting [15]) is listed as 24.0 ± 1.48 g. Also, in [8] (setting [15]), the “Tumor volume (mm^3) Beginning test” value turned out to be 115 ± 36 mm^3. Further, the “Body weight(g) End test” value in data set [8] (20 mg/day/mouse spread on tumor, end of test, X ± SD) worked out at 25.6 ± 3.64 g. Further, in data set [8] (20 mg/day/mouse spread on tumor, end of test, X ± SD, P < 0.05 vs control), the “Tumor volume (mm^3) End test” value is reported as 635 ± 545.1* mm^3. Besides, in data set [8] (20 mg/day/mouse topical, end of test, X ± SD), the “Weight of tumor” value was 0.45 ± 0.335 g. Moreover, the “Inhibiting rate (%)” value in data set [8] (growth inhibition rate from tumor weight, 20 mg/day/mouse topical) is on record as 83.2%. Moreover, the “T/C(%)” value in [8] (relative tumor proliferation rate, 20 mg/day/mouse topical, effective if <= 60 and p<0.05) turned out to be 33.7%. Also, the RTV in [8] (relative tumor volume Vt/Vo, 20 mg/day/mouse topical) is on record as 3.25 ± 1.85. Further, in [9] (1% solution in ethanol), the Stability in ethanol result is listed as “rapidly decomposes”. Moreover, in [9] (1% solution in isopropanol), the Stability in isopropanol result is “keeps stable”. Moreover, the Stability in methanol result in [9] (1% solution in methanol) is listed as “rapidly decomposes”. For the same molecule, the “Stability in tert-butyl alcohol” value in data set [9] (1% solution in tert-butyl alcohol) is “keeps stable”. Besides, the “Stability in acidic (pH<7.0) medium” value in data set [10] (pH 6.5, 6.0 and 5.5, room temperature) was “keep relatively stable”. Also, in data set [10] (pH7.0, room temperature), the “Stability in neutral (pH7.0) medium” value is listed as “rapidly decomposes”. For the same molecule, in data set [10] (pH7.5, room temperature), the “Stability in weakly alkaline (pH7.5) medium” value is listed as “rapidly decomposes”.

Take `CCCCOC(=O)c1ncn2c(=O)n(C)nnc12` [butyl TMZ-8-carboxylate, Butyl 3,4-dihydro-3-methyl-4-oxoimidazo[5,1-d]-1,2,3,5-tetrazine-8-carboxylate]: the half-inhibitory concentration (IC50) was 25.3 µg/mL (≈ 101 µM) in [1] (setting [13]); over 19.5 µg/mL in data set [2] (setting [13]); 24.4 µg/mL (≈ 97 µM) in [3] (setting [13]); 27.4 µg/mL (≈ 109 µM) in [4] (setting [13]); 16.6 µg/mL (≈ 65.9 µM) in [5] (setting [14]); 7.57 µg/mL (≈ 30.1 µM) in [6] (setting [12]). Also, the IC50 in [7] fell in the range of 10 to 30 µg/mL (≈ 39.8 to 119 µM).

For `Cn1nnc2c(C(N)=O)ncn2c1=O` [TMZ, Temozolomide], the “Permeation of artificial skin (silicon membrane), rat skin and human skin” value in [11] is recorded as “inability to permeate”.

As for `COC(=O)c1ncn2c(=O)n(C)nnc12` [methyl TMZ-8-carboxylate, Methyl 3,4-dihydro-3-methyl-4-oxoimidazo[5,1-d]-1,2,3,5-tetrazine-8-carboxylate], the IC50 in [1] (setting [13]) is 27 µg/mL (≈ 129 µM); in [2] (setting [13]), over 19.5 µg/mL; in [3] (setting [13]) it was 25.3 µg/mL (≈ 121 µM); in data set [4] (setting [13]) it was 28.4 µg/mL (≈ 136 µM); in data set [5] (setting [14]) it was 17.7 µg/mL (≈ 84.5 µM); in data set [6] (setting [12]), 8.83 µg/mL (≈ 42.2 µM). Besides, in [7], the IC50 lay in the range of 10 to 30 µg/mL (≈ 47.8 to 143 µM).
